Patent US20230027066A1 (Urovant Sciences GmbH, priority 2019, published 2023)

What was measured:
[1] = Phase 3 study (75 mg), post-void residual urine volume (PVR); type: in vivo, human
Excerpt: The risk of acute urinary retention or morbidities related to an increase in Post-Void Residual (PVR) is a concern with antimuscarinic therapy that promotes smooth muscle relaxation by inhibiting acetylcholine-induced smooth muscle contraction. If, during contraction, the bladder cannot generate enough pressure to overcome the outlet resistance in the urethra, either because of poor detrusor contractility or profound obstruction (most commonly from BPH), acute urinary retention or incomplete emptying of the bladder may result.
The volume of urine that remains in the bladder after voiding (PVR) is an objective measurement that may serve as a proxy for impaired ability to void.
PVR were performed via ultrasound at the visits indicated in the Schedule of Activities.

[2] = Phase 2b study, vital sign (HR, SBP, DBP) changes and orthostatic AEs; type: in vivo, human; settings: tolterodine 4 mg
Excerpt: None led to discontinuation. The overall incidence of orthostatic symptoms was low.
Small differences in the percent of subjects exceeding categorical heart rate and blood pressure thresholds for vibegron were similar to those in the tolterodine arm.

CYP2D6 = CYP2D6 (Homo sapiens, UniProt P10635); assay: clinical; settings: in vivo, 4 mg
[3] = Males with medical history of BPH

Chain of CYP2D6 (P10635 whole entry): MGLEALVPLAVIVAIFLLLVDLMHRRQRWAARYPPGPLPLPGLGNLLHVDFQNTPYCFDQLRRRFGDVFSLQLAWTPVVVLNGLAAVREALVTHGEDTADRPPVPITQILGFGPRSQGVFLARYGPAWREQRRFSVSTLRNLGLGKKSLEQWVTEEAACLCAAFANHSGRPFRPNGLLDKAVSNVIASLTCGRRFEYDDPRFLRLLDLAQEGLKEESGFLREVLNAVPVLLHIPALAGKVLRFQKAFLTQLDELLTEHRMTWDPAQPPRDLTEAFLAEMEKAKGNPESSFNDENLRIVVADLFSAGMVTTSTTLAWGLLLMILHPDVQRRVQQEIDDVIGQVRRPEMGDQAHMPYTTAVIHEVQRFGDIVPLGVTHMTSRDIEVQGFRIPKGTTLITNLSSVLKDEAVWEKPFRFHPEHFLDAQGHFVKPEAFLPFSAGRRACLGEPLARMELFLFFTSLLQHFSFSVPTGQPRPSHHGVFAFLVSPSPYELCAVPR

SMILES: Cc1ccc(O)c([C@H](CCN(C(C)C)C(C)C)c2ccccc2)c1 [Tolterodine ER, tolterodine, reference compound]
- PVR category at Week 12 <100 mL, patients ([1]; Females): 94.4%
- PVR category at Week 12 ≥100 mL to <200 mL, patients ([1]; Females): 5.3%
- PVR category at Week 12 ≥200 mL to <350 mL, patients ([1]; Females): 0.3%
- PVR category at Week 12 ≥350 mL, patients ([1]; Females): 0
- PVR, Mean Change from Baseline at Week 12 (SD) ([1]; Females): 1.9 (40.24) mL
- PVR category at Week 12 <100 mL, patients ([1]; Males): 85.2%
- PVR category at Week 12 ≥100 mL to <200 mL, patients ([1]; Males): 11.5%
- PVR category at Week 12 ≥200 mL to <350 mL, patients ([1]; Males): 3.3%
- PVR category at Week 12 ≥350 mL, patients ([1]; Males): 0
- PVR, Mean Change from Baseline at Week 12 (SD) ([1]; Males): 10.2 (44.24) mL
- PVR category at Week 12 <100 mL, patients [1, 3]: 71.4%
- PVR category at Week 12 ≥100 mL to <200 mL, patients [1, 3]: 28.6%
- PVR category at Week 12 ≥200 mL to <350 mL, patients [1, 3]: 0%
- PVR category at Week 12 ≥350 mL, patients [1, 3]: 0
- PVR, Mean Change from Baseline at Week 12 (SD) [1, 3]: 3.7 (50.64) mL
- PVR category at Week 12 <100 mL, patients ([1]; all patients): 86.5%
- PVR category at Week 12 ≥100 mL to <200 mL, patients ([1]; all patients): 5.8%
- PVR category at Week 12 ≥200 mL to <350 mL, patients ([1]; all patients): 0.7%
- PVR category at Week 12 ≥350 mL, patients ([1]; all patients): 0
- PVR, Mean Change from Baseline at Week 12 (SD) ([1]; all patients): 3.1 (40.93) mL
- DBP change from baseline, mean (95% CI) maximum, week 1 to 8 [2]: 5.19 (4.26, 6.13) mm Hg
- DBP change from baseline, mean (95% CI), week 1 [2]: −0.12 (−1.10, 0.86) mm Hg
- HR change from baseline, mean (95% CI) maximum, week 1 to 8 [2]: 5.66 (4.69, 6.63) bpm
- HR change from baseline, mean (95% CI), week 1 [2]: 0.68 (−0.31, 1.67) bpm
- SBP change from baseline, mean (95% CI) maximum, week 1 to 8 [2]: 7.29 (6.01, 8.57) mm Hg
- SBP change from baseline, mean (95% CI), week 1 [2]: 0.04 (−1.36, 1.43) mm Hg
- AUC(0-t) (CYP2D6): 28.4 ng·h/mL
- half-life (CYP2D6): 10 h
